Data on 84 compounds can be found in ChEMBL document CHEMBL1157539, “Thousands of chemical starting points for antimalarial lead identification” (Nature, 2010).

In the assay the test system is Plasmodium falciparum. As to the kind of experiment: GSK_TCMDC: Inhibition of Plasmodium falciparum 3D7 in whole erythrocytes, using parasite LDH activity as an index of growth. As to conditions: Plasmodium falciparum, 3D7. The assay is classed as functional, organism-based.

`CCOc1ccc2[nH]c(C)cc(=NN=Cc3ccccc3)c2c1` gave an XC50 of 0.785 µM.

With `O=C(NCCCCN1CCC(c2ccc3c(c2OCCO)CCCC3)CC1)c1ccc(-c2ccc(C(F)(F)F)cc2)cc1`, the XC50 came out at 0.855 µM.

Consider `N#Cc1cc([N+](=O)[O-])ccc1-n1nc(-c2cccc(Cl)c2)n(CC2CCCO2)c1=S` (centres undefined), for which the XC50 was 0.914 µM.

Compound `COc1ccc(OCCn2cc(C(=O)c3ccco3)c3ccccc32)cc1` showed an XC50 of 0.773 µM.

`CCCCCCN1CCCN(Cc2ccc(C(=O)Nc3ccc(Cl)cc3)cc2)CC1` returned an XC50 of 1.21 µM.

`O=C(Nc1ccc(Br)cc1)N(CCN1CCOCC1)CC(O)COc1ccc(Cl)c(F)c1` (centres undefined) gave an XC50 of 1.04 µM.

Take `Nc1ccc2nc(C=Cc3ccccc3)[nH]c2c1`: the XC50 is 0.749 µM.

`CCCc1cc(OC)c(C[C@H]2c3cc(O)c(Cl)cc3CCN2C)cc1OC`: the XC50 turned out to be 0.576 µM.

Regarding `Cc1cc(C)c(S(=O)(=O)N2CCCCC(c3cccc(C(F)(F)F)c3)=N2)c(C)c1`, the XC50 turned out to be 0.456 µM.

Regarding `CCOC(=O)c1ccc(NC(=O)N[C@H]2CCN(CCCCCNC(=O)/C=C/c3ccc(Cl)c(Cl)c3)C2)cc1`, the XC50 is 0.735 µM.

As for `CS(=O)(=O)NCCCNCc1ccc(-c2cccc(-c3nc4cc(F)ccc4[nH]3)c2)cc1`, the XC50 came out at 0.804 µM.

The compound `CC1CCCCN1CCCNC(=O)c1cccc(-c2cc3cc(Cl)c(Cl)cc3[nH]2)c1` (centres undefined) registered an XC50 of 0.881 µM.

As for `CCOCCCn1c(=N)c(C(=O)NCc2ccc(OC)cc2)cc2c(=O)n3cccc(C)c3nc21`, the XC50 is 1.06 µM.

In turn, `CCOC(=O)c1ccc(N2CCN(c3cc(C)ccc3C)CC2)c(NC(=O)Nc2ccc(Cl)c(Cl)c2)c1` showed an XC50 of 0.712 µM.

`COc1ccc(-c2ccc(NC(=O)c3ccc(C#N)cc3)cc2)cc1CN1CCN(C)CC1` had an XC50 of 0.721 µM.

Compound `OCC(c1ccccc1)n1c(COc2ccc(Cl)cc2)nc2c(OCCCN3CCCCC3)cccc21` (centres undefined) showed an XC50 of 0.916 µM.

Take `O=S(=O)(Nc1cccc(CCN2CCC(N3CCCCC3)CC2)c1)c1ccc2c(c1)OCCO2`: the XC50 was determined as 1.23 µM.

Compound `CC(C)(C)c1cc(NC(=O)c2ccc(Cl)c([N+](=O)[O-])c2)cc(C(C)(C)C)c1` had an XC50 of 1.03 µM.

Compound `O=S(=O)(NCCN1CCCC1)c1ccc(-c2ccc(CNCc3ccc(F)cc3)cc2)cc1F` showed an XC50 of 1.28 µM.

Consider `Oc1ccc(CCNc2nc(NCc3ccccc3-c3ccc(C(F)(F)F)cc3)nc(N3CCCNCC3)n2)cc1`, for which the XC50 came out at 0.866 µM.

`O=C(Nc1cc(C(F)(F)F)ccc1Cl)c1ccc(Cn2cc(Br)cn2)cc1` registered an XC50 of 1.35 µM.

With `COc1ccc(-c2ccc(CNCc3ccc(F)cc3)cc2)cc1S(=O)(=O)NCCN1CCCC1`, the XC50 is 0.731 µM.

For the compound `O=C(/C=C/c1ccc(Cl)cc1Cl)NC1CCC(CN2CCC(c3c[nH]c4ccccc34)CC2)CC1` (centres undefined), the XC50 turned out to be 0.798 µM.

With `Cn1cnc2c(Nc3ccncc3)nc(-c3ccc(OC(F)(F)F)cc3)nc21`, the XC50 was found to be 1.1 µM.

Take `O=C(NCc1cccs1)[C@H](Cc1ccccc1)Nc1ccnc(NCCc2ccc(F)cc2)n1`: the XC50 was 1.45 µM.

Compound `Cc1noc(C)c1-c1ccc2c(Nc3ccccc3C(C)(C)C)c(C(=O)NCc3ccccc3)cnc2c1` registered an XC50 of 0.762 µM.

The compound `CC(c1cccc(Nc2nccc(-c3c(-c4cccc(NC(=O)c5c(F)cccc5F)c4)nn4ncccc34)n2)c1)S(C)(=O)=O` (centres undefined) yielded an XC50 of 0.0456 µM.

Compound `Cc1cccc2nc(-c3cccc(-c4ccc(CNCCCN5CCCC5=O)cc4)c3)[nH]c12` gave an XC50 of 0.956 µM.

Turning to `COc1ccc2c(=NN=Cc3cccnc3)cc(C)[nH]c2c1`, the XC50 came to 0.993 µM.

Compound `CCCCCCC(C)c1cc(O)c2c(c1)OC(C)(C)c1ccncc1-2` (centres undefined) displayed an XC50 of 0.797 µM.

Regarding `CCN1CCC(N(Cc2ccc(-c3ccc(C(F)(F)F)s3)cc2)C(=O)Cn2c(CCc3cccc(F)c3F)nc(=O)c3ccccc32)CC1`, the XC50 was 0.932 µM.

With `CCN(CC)c1ccc(NC(=S)NC2CCN(CCCCCNC(=O)/C=C/c3ccc(Cl)c(Cl)c3)CC2)cc1`, the XC50 came to 0.883 µM.

Turning to `N#Cc1ccc(CN2CCCN(Cc3cccc(NC(=O)c4ccc(-c5ccccc5)cc4)c3)CC2)cc1`, the XC50 was 1.02 µM.

Compound `CN(C)CCN(C)Cc1ccc(-c2cccc(NC(=O)c3cccc(C#N)c3)c2)cc1` came in with an XC50 of 1.18 µM.

`COc1c(C)cc(I)cc1CNCCCNc1cc(=O)c2ccccc2[nH]1` returned an XC50 of 1.28 µM.

Compound `COc1cc(-c2[nH]c(-c3ccc(OCCN(C)C)cc3)cc2-c2ccncc2)ccc1Cl` displayed an XC50 of 1.79 µM.

The compound `CCNC(=O)c1cc(S(=O)(=O)N2CCN(c3ccccn3)CC2)cs1` had an XC50 of 0.866 µM.

`CCn1c(-c2nonc2N)nc2c(-c3cccc(NC(=O)Nc4ccc5c(c4)CCC5)c3)ncc(OCCCN)c21` returned an XC50 of 0.783 µM.

For the compound `Cc1nc(Nc2ccc(F)cc2)nc(N2CCc3ccccc3C2C)c1CO` (centres undefined), the XC50 is 0.741 µM.

In turn, `O=C(NC(c1ccccc1)c1ccc2cccnc2c1O)c1ccccc1` (centres undefined) gave an XC50 of 0.428 µM.

For the compound `Cc1cc(NC2CCN(CC3CCCCC3)CC2)nc(Nc2ccccc2Cl)n1`, the XC50 was 0.642 µM.

`COc1cc(Nc2nccc(NCC(O)c3ccc(C(F)(F)F)cc3)n2)cc(OC)c1OC` (centres undefined) yielded an XC50 of 0.92 µM.

The compound `CC(C)(C)Cn1cc(-c2ccc(C(=O)NCCc3ccc(S(C)(=O)=O)cc3)cc2)c(N)n1.CC(C)(C)Cn1ncc(-c2ccc(C(=O)NCCc3ccc(S(C)(=O)=O)cc3)cc2)c1N` yielded an XC50 of 0.647 µM.

As for `CC(=O)Nc1nc(C(=O)Nc2ccc(-c3cccc(-c4nc5cc(F)ccc5[nH]4)c3)cc2)cs1`, the XC50 was determined as 0.291 µM.

In turn, `CN1CCCN(Cc2cccc(-c3cccc(NC(=O)c4ccc(C#N)cc4)c3)c2)CC1` displayed an XC50 of 1.14 µM.

The compound `O=C(COc1cnc2ccccc2n1)Nc1ccccc1Sc1ccc(Cl)cc1` returned an XC50 of 0.728 µM.

`Cc1ccc(O)c(-c2cc(C(=O)Nc3ccc(S(=O)(=O)N4CCCCCC4)cc3)[nH]n2)c1` yielded an XC50 of 0.711 µM.

In turn, `CCc1ccc(NC(=O)c2ccc(CN3CCCN(Cc4cccc(Cl)c4)CC3)cc2)cc1` gave an XC50 of 1.11 µM.

Compound `Cc1cccc2nc(-c3cccc(-c4ccc(NC(=O)CC5NC(=O)c6ccccc65)cc4)c3)[nH]c12` (centres undefined) gave an XC50 of 0.289 µM.

The compound `Cc1cc(O)c(CN(C)Cc2ccc(N(C)C)cc2)cc1C(C)C` had an XC50 of 0.55 µM.

For the compound `COC(=O)CCCOc1cc(Cc2cnc(N)nc2N)cc(OC)c1OC`, the XC50 was found to be 0.767 µM.

`COC1CCC(C(=O)Nc2ccc(-c3cccc(-c4nc5cc(C(F)(F)F)ccc5[nH]4)c3)cc2)CC1` (centres undefined) had an XC50 of 0.547 µM.

For `Cc1ccc(CC(C)NCC(O)c2cccc(C(F)(F)F)c2)cc1F` (centres undefined), the XC50 came out at 0.916 µM.

The compound `O=C(c1cnn(-c2ccccc2)c1C(F)(F)F)N1CCN(c2ccnc3cc(Cl)ccc23)CC1` came in with an XC50 of 0.532 µM.

Compound `CC1CN(S(=O)(=O)c2ccc(NC(=O)c3cc(-c4ccccc4O)n[nH]3)cc2)CC(C)O1` (centres undefined) gave an XC50 of 0.832 µM.

`CC(C)CCNCc1ccc(OCc2ccccc2COc2ccc(CNCCC(C)C)cc2I)c(I)c1` displayed an XC50 of 0.425 µM.

Take `CCOc1cc(/C=N/Nc2nc3ccccc3[nH]2)ccc1OCc1ccc([N+](=O)[O-])cc1`: the XC50 worked out at 0.995 µM.

Regarding `N=C(N)Nc1nc(-c2cc(NC(=O)C(F)(F)F)cc([N+](=O)[O-])c2)cs1`, the XC50 was 0.781 µM.

Regarding `O=C(NCCN1CCOCC1)c1ccc(CNC(=O)c2ccc(O)c(-c3ccc(Cl)c(Cl)c3)c2)cc1`, the XC50 came out at 0.929 µM.

The compound `Fc1ccc(C(OCC2CCCN(Cc3cccc4cccnc34)C2)c2ccc(F)cc2)cc1` (centres undefined) yielded an XC50 of 0.703 µM.

The compound `CC1(C)CCCC(=Cc2ccc(Br)cc2)C1(O)Cn1ccnc1` (centres undefined) had an XC50 of 0.791 µM.

Regarding `Cc1ccc(-n2c(=O)c3c(n4c(SC(C)C)nnc24)-c2ccccc2CC32CCCCC2)cc1`, the XC50 worked out at 0.946 µM.

In turn, `O=C(/C=C/c1ccc(Cl)cc1)NCCCCCN1CCCN(C(=O)Nc2cccc(Cl)c2)CC1` showed an XC50 of 1 µM.

Consider `Cc1cc(N[C@@H](CC(C)C)C(=O)NCCc2ccccc2)nc(Nc2ccccc2)n1`, for which the XC50 came out at 0.816 µM.

For `CCCCNC(=N)Nc1ccc(OCCCOc2ccc(NC(=N)NCCCC)cc2)cc1`, the XC50 was 0.164 µM.

`CN1CCCN(Cc2cccc(-c3cccc(NC(=O)c4cccc(Cl)c4)c3)c2)CC1`: the XC50 worked out at 0.889 µM.

The compound `O=C(c1ccc(F)cc1)N1CCOC(CCN2CCC(c3ccccc3)CC2)(c2ccc(Cl)c(Cl)c2)C1` (centres undefined) registered an XC50 of 0.749 µM.

Turning to `O=C(NCCCCN1CCN(c2cccc3c2OCCO3)CC1)c1ccc(NC(=O)c2cc(Cl)cc(Cl)c2)cc1`, the XC50 is 0.225 µM.

`N#Cc1cccc(-c2cnc(N)c(-c3nc4cc(S(N)(=O)=O)ccc4[nH]3)c2)c1` had an XC50 of 0.644 µM.

`CCCN(CCC)C(=O)c1cc(C(=O)N[C@@H](Cc2ccccc2)[C@H](O)CNCc2cccc(C(F)(F)F)c2)cc(N2CCCCS2(=O)=O)c1` gave an XC50 of 0.876 µM.

Compound `Nc1ncc(-c2ccc(F)c(Cl)c2)c(N)n1` showed an XC50 of 1.23 µM.

`O=C(Nc1ccc(-c2cccc(-c3nc4cc(F)ccc4[nH]3)c2)cc1)c1cnn2cccnc12`: the XC50 amounted to 0.647 µM.

`NC(=O)C1CCN(Cc2cccc(-c3ccc(-c4nc5cc(C(F)(F)F)ccc5[nH]4)cc3)c2)CC1` registered an XC50 of 0.61 µM.

In turn, `COc1ccc(C(C)Nc2nc(N)c3cc(OC)c(OC)cc3n2)cc1` (centres undefined) showed an XC50 of 0.936 µM.

The compound `COc1ccccc1CNC(=O)c1ccc(N2CCN(c3ccncc3)CC2)cn1` registered an XC50 of 1.36 µM.

In turn, `COCCN1CCC(N(CC2(O)CCN(c3ccc(C(F)(F)F)cc3)CC2)C(=O)Cn2c(SCc3cccc(F)c3F)cc(=O)c3ccccc32)CC1` gave an XC50 of 0.807 µM.

The compound `COc1ccccc1N1CCN(CCCCNC(=O)c2ccc(NC(=O)c3cc4ccccc4o3)cc2)CC1` gave an XC50 of 0.978 µM.

The compound `COC(=O)c1noc(C)c1I` returned an XC50 of 0.802 µM.

With `N=C(N)NN=Cc1ccc2c(ccc3ccccc32)c1`, the XC50 is 0.634 µM.

The compound `COc1ccc(CNc2ncnc3c2[nH]c2ccc(F)cc23)cc1` yielded an XC50 of 0.98 µM.

`COc1ccc2nc3cc(Cl)ccc3c(Nc3ccc(Oc4ccc(Nc5c6ccc(Cl)cc6nc6ccc(OC)cc56)cc4)cc3)c2c1` came in with an XC50 of 0.859 µM.

The compound `CN1CCN(CCCN(Cc2cccc(-c3cccc(CNCc4ccc5c(c4)OCO5)c3)c2)C(=O)CCC2CCCC2)CC1` displayed an XC50 of 0.952 µM.

`O=C(c1cccc(-c2ccc(-c3nc4cc(C(F)(F)F)ccc4[nH]3)cc2)c1)N1CCCCC1CN1CCC(O)C1` (centres undefined) registered an XC50 of 0.465 µM.

Consider `CC(Cc1ccc(NC(=O)c2ccc(CC(C)NCc3ccc(Cl)c(Cl)c3)cc2)cc1)NCCc1cccc(Cl)c1` (centres undefined), for which the XC50 stood at 1 µM.
